The values that follow come from patent US9989533B2, “Anti-TNF induced apoptosis (ATIA) diagnostic markers and therapies” (The United States of America, as represented by the …, priority 2009, dated 2018).

Where two headings read alike, the source gives them in different places.

Series [1] concerns ATIA. In words: effect of cyclohexamide on ATIA stability, blot (FIG. 28 bottom). The class given is cell-based, human. Here is the method:
(§1) FIG. 28 is two panels that show the effect of cyclohexamide on ATIA stability and cell apoptosis.
(§2) Experiments were performed with small chemical molecules to reduce ATIA levels in cancer cells. Examples of small molecules that can be used include, but are not limited to, cyclohexamide. […] Preferably, […] is administered locally to the tumor.

The subject of the next series is A172 cells. Kind of series: apoptosis (annexin positive cells) after cyclohexamide treatment under hypoxia (FIG. 28 top). The settings on record: in the presence of CHX. The class given is cell-based, human. How it is done:
as §1, §2

Series [2] has as its system ATIA. It counts as cell-based.
The subject of the next series is ATIA+/+ and ATIA−/− mice. The class given is in vivo. As to conditions: GalN pretreatment, TNFα 2 μg/Kg intravenous, by 8 hr post-treatment. How it is done: (A) is a schematic diagram of ATIA knockout strategy. (B) and (C) show the generation of ATIA+/− ES cells (B) and ATIA+/− and ATIA−/− mice (C) was confirmed by PCR. […] Survival curves of wild-type (n=5) and ATIA KO (n=8) after TNF treatment. […] Tissue sections were analyzed by H&E (left panels) and TUNNEL (right panels) staining.
To determine whether ATIA is able to protect from TNF-induced apoptosis in vivo, a model of TNF-induced hepatitis (26, 27) was used. […] By 8 hr post-treatment, 20% of ATIA+/+ mice as compared to more than 85% of ATIA—mice were moribund (FIG. 5D). […] No other histological differences were noted. […] To further confirm this observation, we also examined TNF-induced apoptosis in ATIA−/− MEFs. Wild-type and ATIA−/− mouse embryonic fibroblast cell lines were established from 10.5-12.5 day old wild-type and ATIA knockout embryos. The cell lines were verified for the loss of ATIA by genomic PCR analysis and western blotting with the anti-ATIA antibody (data not shown). Cells were treated with TNF and varied doses of cyclohexamide (CHX) (FIG. 6A). […] Cell death induced by UV radiation or staurosporine is however, only moderately affected by the loss of ATIA (FIG. 6B).

For series [3], the system named is A172, U87MG and 251 glioblastoma cells. In words: TRAIL-induced cell death in glioblastoma cells (FIG. 19). The class given is cell-based. As to conditions: ATIA-expressing human glioblastoma cells (A172) versus cells which do not express ATIA (U87MG); TRAIL 20 ng/ml, 24 h. The source says: Next, the sensitivity of ATIA expressing cells to TRAIL-induced cell death was examined. FIG. 19, left panel, is a western blot showing the expression of ATIA in various glioblastoma cell types.

For `C[C@@H]1C[C@@H]([C@H](O)CC2CC(=O)NC(=O)C2)C(=O)[C@@H](C)C1` [cycloheximide], in the series on ATIA [1] (0.5 ug, A172 Cells), the “effect on ATIA level” value is recorded as “causes the decrease of ATIA”. Moreover, the “effect on ATIA levels” value in the series on ATIA [1] (low levels (e.g. 0.1 μg-1.0 μg), tumor cells) was “reduces ATIA levels”. For the same molecule, in the series on A172 cells, the apoptosis under hypoxia entry is listed as “undergo apoptosis”.
As for `[Cl-].[Cl-].[Co+2]` [CoCl2], the ATIA protein expression result in the series on ATIA [2] was “considerably increased”.
Consider TNFα, for which the moribund mice is listed as 20% in the series with ATIA+/+ and ATIA−/− mice (ATIA+/+ mice); “more than 85%” in the series with ATIA+/+ and ATIA−/− mice (ATIA−/− mice).

B1: TRAIL: tumour necrosis factor-related apoptosis-inducing ligand (protein, UniProt P50591 1-281, looked up)
Tumor necrosis factor ligand …: MAMMEVQGGPSLGQTCVLIVIFTVLLQSLCVAVTYVYFTNELKQMQDKYSKSGIACFLKEDDSYWDPNDEESMNSPCWQVKWQLRQLVRKMILRTSEETISTVQEKQQNISPLVRERGPQRVAAHITGTRGRSNTLSSPNSKNEKALGRKINSWESSRSGHSFLSNLHLRNGELVIHEKGFYYIYSQTYFRFQEEIKENTKNDKQMVQYIYKYTSYPDPILLMKSARNSCWSKDAEYGLYSIYQGGIFELKENDRIFVSVTNEHLIDMDHEASFFGAFLVG
B1: in series [3], the “sensitivity to TRAIL-induced cell death” value was “much more sensitive to TRAIL-induced cell death”.
